Results on three molecules are retold here after patent US20260083702A1, “INHALATION FORMULATION FOR TREATING IPF DISEASE AND PREPARATION METHOD THEREFOR” (SUZHOU INHAL PHARMA CO., LTD., priority 2023, published 2026).

The subject of test [1] is mice with pulmonary fibrosis. The experiment in a line: Weight measurement in bleomycin pulmonary fibrosis model (Experimental Example 2). The test is classed as in vivo, C57BL6J mice. The note with it: compared with the model group; bleomycin 3 mg/kg intratracheal, treatment from week 1 for two weeks; FIG. 1. An excerpt: Establishment of pulmonary fibrosis model: 6-8 week old C57BL6J mice were selected and acclimatized for one week. In the model group, apremilast inhalation (Example 2) treatment group, roflumilast inhalation (Example 5) treatment group, crisaborole inhalation (Example 3) treatment group, apremilast oral administration treatment group (Comparative Example 1), and nintedanib oral administration treatment group (Comparative Example 2, nintedanib is a commonly used drug for treating IPF in the prior art), the animals were treated with bleomycin solution (3 mg/kg/50 μl) via intratracheal instillation on the first day, and in the control group, the animals were treated with an equal volume of physiological saline. Treatment started one week later and lasted for two weeks, and a total of three weeks was required. […]
(§1) Weight measurement: The weight of mice was measured and recorded at a fixed time on the morning each week, and the weight changes of mice in each group at different times were observed.
Statistical analysis: The results were statistically analyzed using Graphpad Prism 9.0 software for the experimental data of each group. […] The measurement data were expressed as mean #standard deviation (mean±SD). […]

In test [2] the test system is mice with pulmonary fibrosis. The experiment in a line: MASSON staining of lungs in bleomycin pulmonary fibrosis model (Experimental Example 2). Format: in vivo, C57BL6J mice. The following applies: FIG. 2; for collagen fibers / collagen deposition (MASSON staining): compared with the model group; for pathological changes in the lungs (MASSON staining): inhalation groups compared with model group, oral groups compared with inhalation groups. An excerpt:
(§2) Establishment of pulmonary fibrosis model: 6-8 week old C57BL6J mice were selected and acclimatized for one week. In the model group, apremilast inhalation (Example 2) treatment group, roflumilast inhalation (Example 5) treatment group, crisaborole inhalation (Example 3) treatment group, apremilast oral administration treatment group (Comparative Example 1), and nintedanib oral administration treatment group (Comparative Example 2, nintedanib is a commonly used drug for treating IPF in the prior art), the animals were treated with bleomycin solution (3 mg/kg/50 μl) via intratracheal instillation on the first day, and in the control group, the animals were treated with an equal volume of physiological saline. Treatment started one week later and lasted for two weeks, and a total of three weeks was required. The bleomycin solution was prepared by mixing bleomycin dry powder with sterile PBS to reach the required concentration (non-surgical method of intratracheal injection of bleomycin into mouse lungs: the mice were anesthetized with isoflurane and suspended on a surgical stent at a 70° angle. Bleomycin was administered via intratracheal instillation using a 200 μl pipette).
(§3) HE staining and MASSON staining: Mouse lung tissue was fixed in 4% paraformaldehyde for 24 h, rinsed with running water overnight, dehydrated with alcohol conventionally, embedded in paraffin, cut into 5 μm sections, and stained with HE and MASSON respectively. After clearing with xylene, the sections were mounted with neutral resin. The pathological changes in the lungs were observed and photographed under an optical microscope.

Test [3] deals with mice with pulmonary fibrosis. The experiment in a line: HE staining of lungs in bleomycin pulmonary fibrosis model (Experimental Example 2). Format: in vivo, C57BL6J mice. The following applies: FIG. 3; for alveolar structure (HE staining): compared with the model group.
Source text: as §2, §3

Test [4] has as its system mice with pulmonary fibrosis. In words: Detection of MDA and HYP content in the lungs, bleomycin pulmonary fibrosis model (Experimental Example 2). The test is classed as in vivo, C57BL6J mice. The note with it: compared with model group; FIG. 4.
Source text: as §2
Detection of malondialdehyde (MDA) and hydroxyproline (HYP) content in the lungs: An appropriate amount of lung tissue was taken from the mice in each group, homogenized (the ground tissue was centrifuged at 3000 rpm for 10 min and the supernatant was taken for later use), and the MDA and HYP content in the lungs was detected according to the kit instructions. MDA stands for malondialdehyde, a product of lipid peroxidation that reflects oxidative damage, while HYP stands for hydroxyproline level, which reflects the level of pulmonary fibrosis.
Statistical analysis: The results were statistically analyzed using Graphpad Prism 9.0 software for the experimental data of each group. All experimental data underwent normality test. The measurement data were expressed as mean #standard deviation (mean±SD). One-way ANOVA was used to compare the means of multiple groups of samples. P<0.05 is considered statistically significant.

For test [5], the system named is mice with pulmonary fibrosis. The experiment in a line: Weight measurement in bleomycin pulmonary fibrosis model (Experimental Example 4). The test is classed as in vivo, C57/BL6J mice. The following applies: FIGS. 5 and 6.
Source text: (§4) Establishment of pulmonary fibrosis model: 6-8 week old C57/BL6J mice were selected and acclimatized for one week. The mice were divided into blank control group, model group, apremilast inhalation (Example 2) treatment group, roflumilast inhalation (Example 5) treatment group, crisaborole inhalation (Example 3) treatment group, ibudilast inhalation (Example 10) treatment group, difamilast inhalation (Example 9) treatment group, ibudilast oral administration (Comparative Example 3) treatment group, difamilast oral administration (Comparative Example 4) treatment group, and nintedanib oral administration (Comparative Example 2, nintedanib is a commonly used drug for treating IPF in the prior art) treatment group, with n=8 in each group. On the first day, the mice in the model group and the treatment groups were administered bleomycin solution (3 mg/kg/50 μl) via tracheal instillation, while the control group was treated with an equal volume of physiological saline. Treatment began in each treatment group one week later and lasted for two weeks, and a total of three weeks was required. The bleomycin solution was prepared by mixing bleomycin dry powder with sterile PBS to reach the required concentration (non-surgical method of intratracheal injection of bleomycin into mouse lungs: the mice were anesthetized by inhaling isoflurane, and suspended on a surgical stent at a 70° angle, and bleomycin was administered via intratracheal instillation using a 200 μl pipette).
as §1
(§5) Statistical analysis: The results were statistically analyzed using Graphpad Prism 9.0 software for the experimental data of each group. All experimental data underwent normality test. The measurement data were expressed as mean±standard deviation (mean±SD). One-way ANOVA was used to compare the means of multiple groups of samples. P<0.05 is considered statistically significant.

The subject of test [6] is mice with pulmonary fibrosis. The experiment in a line: MASSON staining of lungs in bleomycin pulmonary fibrosis model (Experimental Example 4). The test is classed as in vivo, C57/BL6J mice. The following applies: FIG. 7; for collagen fibers / collagen deposition (MASSON staining): compared with the model group; for lung damage / pathological changes (MASSON staining): inhalation groups compared with model group, oral groups compared with inhalation groups.
Source text: as §4
(§6) HE staining and MASSON staining: Mouse lung tissue was fixed in 4% paraformaldehyde for 24 h, rinsed with running water overnight, dehydrated with alcohol as usual, embedded in paraffin, then serially cut into sections (5 μm), and stained with HE and MASSON respectively. After clearing with xylene, the sections were mounted with neutral resin. The sections were observed and photographed under an optical microscope.

In test [7] the test system is mice with pulmonary fibrosis. The experiment in a line: HE staining of lungs in bleomycin pulmonary fibrosis model (Experimental Example 4). The note with it: FIG. 8; for alveolar structure (HE staining): compared with the model group. The test is classed as in vivo, C57/BL6J mice.
Source text: as §4, §6

Test [8] concerns mice with pulmonary fibrosis. In words: Detection of MDA and HYP content in the lungs, bleomycin pulmonary fibrosis model (Experimental Example 4). The following applies: compared with model group; FIG. 9. Format: in vivo, C57/BL6J mice.
Source text: as §4
Detection of malondialdehyde (MDA) and hydroxyproline (HYP) content in the lungs: An appropriate amount of lung tissue was taken from the mice in each group, homogenized (the ground tissue was centrifuged at 3000 rpm for 10 min and the supernatant was taken for later use), and the MDA and HYP content in the lungs was detected according to the kit instructions (MDA stands for malondialdehyde, a product of lipid peroxidation that reflects oxidative damage; HYP (hydroxyproline) level reflects the degree of fibrotic deposition in the lungs).
as §5

The mark [9] stands for this setting: 14th day compared to the 7th day after model establishment.

As for `CCOc1cc([C@@H](CS(C)(=O)=O)N2C(=O)c3cccc(NC(C)=O)c3C2=O)ccc1OC` [Comparative Example 1, apremilast], the weight recovery entry in test [1], in test [5] (setting [9]) and in test [5] (compared with the model group) was “significant weight recovery” each time. The “collagen fibers / collagen deposition (MASSON staining)” value (shortened to “collagen fibers / collagen deposition”) in test [2] and in test [6] was “reduced collagen deposition” throughout. Besides, the “pathological changes in the lungs (MASSON staining)” value in test [2] is “slightly thickened alveolar interstitium and a few visible collagen fibers”. The “inflammatory cell infiltration (HE staining)” value (shortened to “inflammatory cell infiltration”) in test [3] and in test [7] was “a few inflammatory cell infiltrations” throughout. In addition, the “alveolar structure (HE staining)” value is recorded as “improved alveolar structure” in test [3] and “improved the alveolar structure” in test [7]. Also, the “HYP content in the lungs (collagen deposition)” value (“HYP content in the lungs” below) was “slight tendency to alleviate MDA and HYP in the lungs, but the results were not statistically significant” in test [4]; “slight downward trend, but this did not have statistical significance” in test [8]. For the same molecule, the “MDA content in the lungs (oxidative stress level)” value (“MDA content in the lungs” below) in test [4] is “slight tendency to alleviate MDA and HYP in the lungs, but the results were not statistically significant”; in test [8] it was “slight downward trend, but this did not have statistical significance”. Moreover, the “lung damage / pathological changes (MASSON staining)” value (from here on “lung damage / pathological changes”) in test [6] was “slightly thickened alveolar interstitium and a few visible collagen fibers”.

Turning to `COC(=O)c1ccc2c(c1)NC(=O)/C2=C(\Nc1ccc(N(C)C(=O)CN2CCN(C)CC2)cc1)c1ccccc1` [Comparative Example 2, nintedanib], the weight recovery result in test [1] is “no significant difference in weight recovery”; in test [5] (setting [9]), “did not show significant body recovery”; in test [5] (compared with the model group), “no significant difference in weight recovery”. Also, the “collagen fibers / collagen deposition” value in test [2] and in test [6] was “reduced collagen deposition” in each case. Also, the “pathological changes in the lungs (MASSON staining)” value in test [2] was “slightly thickened alveolar interstitium and a few visible collagen fibers”. Besides, the “inflammatory cell infiltration” value in test [3] and in test [7] was “a few inflammatory cell infiltrations” each time. In addition, the “alveolar structure (HE staining)” value in test [3] was “improved alveolar structure”; in test [7], “improved the alveolar structure”. Moreover, the “HYP content in the lungs” value in test [4] is “slight tendency to alleviate MDA and HYP in the lungs, but the results were not statistically significant”; in test [8], “slight downward trend, but this did not have statistical significance”. For the same molecule, the “MDA content in the lungs” value in test [4] was “slight tendency to alleviate MDA and HYP in the lungs, but the results were not statistically significant”; in test [8], “slight downward trend, but this did not have statistical significance”. Besides, the “lung damage / pathological changes” value in test [6] is “slightly thickened alveolar interstitium and a few visible collagen fibers”.

Consider `CCOc1ccccc1C(=O)NCc1coc(-c2ccc(OC(F)F)c(OC(C)C)c2)n1` [Comparative Example 4, difamilast], for which the weight recovery result in test [5] (setting [9]) was “significant weight recovery”. The weight recovery result in test [5] (compared with the model group) is “significant weight recovery”. In test [6], the “collagen fibers / collagen deposition” value is recorded as “reduced collagen deposition”; the “lung damage / pathological changes” value is “slightly thickened alveolar interstitium and a few visible collagen fibers”. In test [7], the “inflammatory cell infiltration” value was “a few inflammatory cell infiltrations” and the “alveolar structure (HE staining)” value is given as “improved the alveolar structure”. Further, in test [8], the “HYP content in the lungs” value is “slight downward trend, but this did not have statistical significance” and the “MDA content in the lungs” value is listed as “slight downward trend, but this did not have statistical significance”.
